# Columns and labels:
# [1] = target: T1, US28 (Human cytomegalovirus, UniProt P69332); test: cell-based; set-up: species or system HCMV; conditions: for % 10^-5 remaining activity on US28 in inositol phosphate assay: at 10^-5; for inverse agonistic effect at US28 relative to the compound of Formula X (statement in words): structure-activity discussion of Table 1; for loss in inverse agonistic potency: relative to the compound of Formula X
# Method: (§1) Cell culture, transfection and infection with HCMV. COS-7 cells were grown as previously described in the cited Casarosa reference. Transfection of the COS-7 cells was performed by DEAE-dextran, using 2 µg of DNA of each US28 construct per million cells. Human foreskin fibroblasts (HFFs) were cultured and infected with […] (strain AD169) or a deletion mutant Δ28-HCMV.
# (§2) [^3H]-inositol phosphate production. Experiments in COS-7 cells and HFFs were performed as described in the references mentioned in the previous paragraph.
# Data analysis. Curve fitting of data was carried out using the program Prism and IC50 values obtained by nonlinear regression analysis (GraphPad Software, Inc., San Diego, USA). Data are expressed as mean ± S.E.
# In order to find inverse agonists for US28, a variety of compounds were screened for modulation of US28-mediated constitutive inositol phosphate (InsP) production. This approach led to identify the compound of Formula X as inverse agonist for US28.
# [2] = target: T1, US28; test: biochemical; type: binding, HCMV
# [3] = target: T2, RCMV-encoded R33 (Rat cytomegalovirus, UniProt O12000); test: R33-mediated InsP accumulation (PLC activation) in COS-7 cells; type: cell-based; conditions: concentration as high as 10 µM
# T2 construct: expressed in transfected cells; host or cells: COS-7
# Method: as §2
# (§3) Moreover, other GPCRs were used as controls to ascertain specificity of action of this compound. As previously reported, expression ofRCMV-encoded R33 (Gruijthuijsen et al. J. Virol. 76 (2002), 1328-1338) or KSHV-encoded ORF74 (Rosenkilde et al. 274 (1999), 956-961) also leads to constitutive activation of phospholipase C.
# [4] = target: T3, KSHV-encoded ORF74 (Human herpesvirus 8 type P, UniProt Q98146); test: ORF74-mediated InsP accumulation (PLC activation) in COS-7 cells; type: cell-based; conditions: concentration as high as 10 µM
# T3 construct: expressed in transfected cells; host or cells: COS-7
# Method: as §2, §3
# [5] = target: T4, human histamine H1 receptor (hH1) (Homo sapiens, UniProt P35367); test: InsP production in COS-7 cells expressing the histamine H1 receptor; type: cell-based; conditions: 10 µM, COS-7 cells expressing the H1 receptor
# T4 construct: expressed in transfected cells; host or cells: COS-7
# Method: as §2
# Furthermore, the compound of Formula X was tested on COS-7 cells expressing the human histamine H1 receptor (hH1). Like US28, this GPCR constitutively activates PLC enzymes via Gαq/11 proteins.
# [6] = tested on: transfected cells; test: AlamarBlue toxicity test; type: cell-based; conditions: AlamarBlue assay, 2 hours incubation, data not shown
# Method: Toxicity test. The AlamarBlue^TM assay (Serotec, Oxford, UK) was performed following the manufacturer's protocol. Briefly, transfected cells were incubated with the compound of Formula X for 2 hours, followed by the addiction of the AlamarBlue dye.
# After 1 hour, the fluorescence was monitored at 560 nm excitation wavelength and 590 nm emission wavelenght in a Victor^2 (PerkinElmer, Boston, USA).
# [7] = target: T1, US28; type: binding, HCMV; conditions: in the presence of 10 µM compound of Formula X (725 ± 69 in its absence)
# Method: (§4) Binding experimants. Labeling of RANTES (Peprotech, Rocky Hill, USA) with [^125I] and binding in COS-7 cells were performed as previously described (Gruijthuijsen et al., J. Virol. 76 (2002) 1328-1338).
# Moreover, the present inventors investigated the effect of the compound of Formula X in a saturation binding assay of [^125I]-RANTES.
# [8] = target: Δ(2-22)-US28 (Human cytomegalovirus, UniProt P69332); test: cell-based; set-up: species or system HCMV
# Source text: (§5) DNA constructs. The cDNA encoding for US28 (see Casarosa et al. in J, Biol. Chem. 276 (2001) 1133-1137) was inserted into the mammalian vector pcDNAS. Δ(2-22)-US28 and the HA-tagged versions of both WT- and Δ(2-22)-US28 were generated by PCR. Single amino acid mutations, as for E^277A- and E^277Q.US28, were introduced using the Altered Sites® II in vitro Mutagenesis System (Promega, Madison, USA), according to manufacturer's protocol. All constructs were verified by dideoxy sequencing.
# as §2
# [9] = target: E^277A-US28 (Human cytomegalovirus, UniProt P69332, E277A); type: binding, HCMV; conditions: E277A-US28, [125I]-RANTES displacement
# Source text: as §5, §4
# (§6) E^277 was therefore mutated into glutamine, to eliminate the charge but retain the hydrogen bonding potential of the side chain, and into alanine, to eliminate both the charge and the hydrogen bonding potential.
# [10] = target: E^277Q-US28 (Human cytomegalovirus, UniProt P69332, E277Q); type: binding, HCMV; conditions: E277Q-US28, [125I]-RANTES displacement
# Source text: as §5, §4, §6
# [11] = target: T1, US28; test: cell-based; set-up: species or system HCMV (strain AD169)
# Method: as §1, §2
# [12] = tested on: US28; test: cell-based; set-up: species or system HCMV (strain AD169); conditions: US28-deletion-mutant-HCMV- or mock-infected HFFs
# Method: as §1, §2
# [13] = target: T1, US28; test: biochemical; type: binding, HCMV (strain AD169); conditions: AD169-infected HFFs
# Method: as §1, §4
# [14] = tested on: US28-mediated HIV-1 entry; test: HIV-1 infection assay (luciferase reporter virus) in HEK293-T cells with CD4 and US28; type: cell-based; conditions: Human immunodeficiency virus 1, HEK-293T
# Method: HIV-1 infection assay. HEK293-T cells were transiently transfected with pcDNA1-US28 and pcDNA1-CD4 using the calcium phosphate method and cultured overnight in 48 well plates. The following day, cells were incubated with different concentrations of the compound of Formula X (dissolved in DMSO) or medium (containing an equal amount of DMSO) for 2 hours before infection with an R5-tropic HIV- 1 virus containing the luciferase reporter gene under the LTR promoter. After overnight incubation, cells were washed twice and cultivated in fresh medium. 3 days after infection, the luciferase activity was quantitated using the Luciferase Assay System (Promega, Madison, USA).
# (§7) In order to test the ability of the compound of Formula X to block viral entry via US28, a reporter gene assay was used. In this assay, HEK-293T cells expressing US28 and CD4 are infected by a luciferase-containing HIV-1 reporter virus. Consequently, the level of cellular luciferase activity is proportional to HIV-1 entry. […] Luciferase activity is increased approximately 20 fold in the presence of US28 when compared to cells expressing CD4 alone (fig. 6A). […] At 10^-6M, the compound of Formula X reduces HIV-1 entry to 41 ± 8 % of control cells. Determination of a complete dose-response curve was not possible due to toxic effects of DM50 and the compound at higher concentrations, as determined by MTT test.
# [15] = tested on: HEK-293T cells; test: MTT test; type: cell-based; conditions: higher concentrations (above 10^-6M), together with the solvent
# Source text: as §7
# [16] = IC50 InsP, inhibition of US28-mediated InsP production, COS-7 cells, N.A. = non active
# T1 sequence (P69332 whole entry): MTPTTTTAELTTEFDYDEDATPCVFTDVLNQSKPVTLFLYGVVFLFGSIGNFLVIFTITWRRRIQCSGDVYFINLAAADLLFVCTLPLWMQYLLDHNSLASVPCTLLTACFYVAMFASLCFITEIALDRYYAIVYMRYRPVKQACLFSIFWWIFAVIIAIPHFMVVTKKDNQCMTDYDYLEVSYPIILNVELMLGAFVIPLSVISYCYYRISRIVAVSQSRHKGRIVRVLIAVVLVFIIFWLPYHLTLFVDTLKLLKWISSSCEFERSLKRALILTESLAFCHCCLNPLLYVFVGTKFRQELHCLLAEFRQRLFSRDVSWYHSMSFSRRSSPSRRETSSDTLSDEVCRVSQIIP
# Δ(2-22)-US28, sequence (P69332 22-354, looked up, stated change not applied): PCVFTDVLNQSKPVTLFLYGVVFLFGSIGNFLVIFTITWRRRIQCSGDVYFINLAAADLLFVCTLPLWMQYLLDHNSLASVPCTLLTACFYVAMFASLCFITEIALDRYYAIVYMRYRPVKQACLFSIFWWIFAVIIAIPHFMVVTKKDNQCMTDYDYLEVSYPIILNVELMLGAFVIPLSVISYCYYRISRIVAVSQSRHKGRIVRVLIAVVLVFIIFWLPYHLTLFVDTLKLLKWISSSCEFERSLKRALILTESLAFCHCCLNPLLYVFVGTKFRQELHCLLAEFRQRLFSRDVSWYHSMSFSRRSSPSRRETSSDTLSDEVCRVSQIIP
# T3 sequence (Q98146 whole entry): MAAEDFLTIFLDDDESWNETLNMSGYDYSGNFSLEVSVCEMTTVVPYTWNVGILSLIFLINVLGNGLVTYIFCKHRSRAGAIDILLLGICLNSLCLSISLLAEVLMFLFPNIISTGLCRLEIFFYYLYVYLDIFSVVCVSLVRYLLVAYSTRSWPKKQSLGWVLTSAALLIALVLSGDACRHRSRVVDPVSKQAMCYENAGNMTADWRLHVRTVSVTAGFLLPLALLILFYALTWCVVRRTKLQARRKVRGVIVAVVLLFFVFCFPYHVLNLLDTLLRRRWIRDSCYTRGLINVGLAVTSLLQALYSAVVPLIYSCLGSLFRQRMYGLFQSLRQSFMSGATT
# E^277A-US28, sequence (P69332 whole entry E277A): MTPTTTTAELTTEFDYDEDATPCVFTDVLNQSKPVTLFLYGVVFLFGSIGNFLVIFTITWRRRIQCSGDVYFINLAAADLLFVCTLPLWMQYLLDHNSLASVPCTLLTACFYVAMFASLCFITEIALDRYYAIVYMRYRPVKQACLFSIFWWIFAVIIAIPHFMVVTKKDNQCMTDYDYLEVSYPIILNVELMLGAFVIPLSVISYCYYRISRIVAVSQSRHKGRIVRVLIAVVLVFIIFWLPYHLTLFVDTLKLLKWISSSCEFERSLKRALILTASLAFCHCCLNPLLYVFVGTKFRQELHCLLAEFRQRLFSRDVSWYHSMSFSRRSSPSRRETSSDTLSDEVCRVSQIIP
# T2 sequence (O12000 whole entry): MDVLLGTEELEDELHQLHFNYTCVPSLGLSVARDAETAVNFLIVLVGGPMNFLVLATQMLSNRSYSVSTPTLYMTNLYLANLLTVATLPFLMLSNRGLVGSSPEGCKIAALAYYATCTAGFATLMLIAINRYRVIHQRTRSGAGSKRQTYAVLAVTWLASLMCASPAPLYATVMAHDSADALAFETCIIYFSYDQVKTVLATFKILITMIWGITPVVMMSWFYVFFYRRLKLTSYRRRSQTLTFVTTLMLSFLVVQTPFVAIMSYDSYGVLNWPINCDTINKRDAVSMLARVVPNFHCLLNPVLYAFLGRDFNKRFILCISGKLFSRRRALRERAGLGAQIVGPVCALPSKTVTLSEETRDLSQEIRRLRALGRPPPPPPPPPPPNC
# E^277Q-US28, sequence (P69332 whole entry E277Q): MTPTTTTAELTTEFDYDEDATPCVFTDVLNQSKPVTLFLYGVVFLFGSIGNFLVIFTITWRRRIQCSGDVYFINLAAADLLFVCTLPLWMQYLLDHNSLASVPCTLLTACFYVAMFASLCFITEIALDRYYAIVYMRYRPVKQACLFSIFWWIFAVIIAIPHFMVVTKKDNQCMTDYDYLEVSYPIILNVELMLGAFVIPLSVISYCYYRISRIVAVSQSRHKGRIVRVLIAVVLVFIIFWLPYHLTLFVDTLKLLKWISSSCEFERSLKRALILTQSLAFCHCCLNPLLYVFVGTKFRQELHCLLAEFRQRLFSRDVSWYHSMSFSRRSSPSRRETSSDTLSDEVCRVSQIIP
# T4 sequence (P35367 whole entry): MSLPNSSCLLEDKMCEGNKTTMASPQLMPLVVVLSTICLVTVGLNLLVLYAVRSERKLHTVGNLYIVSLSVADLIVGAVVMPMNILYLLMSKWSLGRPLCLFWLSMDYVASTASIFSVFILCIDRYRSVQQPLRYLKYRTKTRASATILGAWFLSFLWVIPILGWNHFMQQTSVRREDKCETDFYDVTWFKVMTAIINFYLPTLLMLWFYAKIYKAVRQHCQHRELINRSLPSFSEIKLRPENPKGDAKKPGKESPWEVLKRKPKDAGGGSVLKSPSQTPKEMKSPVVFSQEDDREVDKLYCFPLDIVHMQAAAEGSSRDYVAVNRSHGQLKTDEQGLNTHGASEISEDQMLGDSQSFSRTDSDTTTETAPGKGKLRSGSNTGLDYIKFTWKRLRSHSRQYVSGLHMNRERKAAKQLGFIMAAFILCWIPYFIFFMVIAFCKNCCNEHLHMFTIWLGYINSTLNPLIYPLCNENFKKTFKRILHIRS
smiles,measurement,setting,value
N#CC(CCCN1CCC(O)(c2ccc(Cl)cc2)CC1)(c1ccccc1)c1ccccc1 [Formula X],kind of inverse agonism at US28 (inhibition of signaling complete),[1]; COS-7 cells,full inverse agonist
same,IC50,[1]; [16],3.5 µM
same,% 10^-5 remaining activity on US28 in inositol phosphate assay,[1],10%
same,IC50,"[1]; pIC50 of US28 mediated InsP production, COS-7 cells, WT-US28",3.47 µM
same,IC50,[2],8.4 µM
same,modulation of R33-mediated PLC activation,[3],does not modulate
same,modulation of ORF74-mediated PLC activation,[4],does not modulate
same,basal or histamine-induced production of InsP,[5],does not alter
same,cellular toxicity,[6],did not show cellular toxicity
same,Bmax value of [125I]-RANTES,[7],380 ± 36 fmol/mg protein
same,IC50,[8],4.47 µM
same,inhibition of constitutive signaling,"[8]; Δ(2-22)-US28, COS-7 cells",totally inhibits
same,affinity compared to WT-US28,[9],markedly reduced
same,affinity compared to WT-US28,[10],markedly reduced
same,IC50,[11],0.776 µM
same,effect on InsP signaling,[12],does not affect
same,IC50,[13]; IC50 of [125I]-RANTES displacement,0.708 µM
same,IC50,[13]; pIC50 of [125I]-RANTES displacement,0.708 µM
same,activity at 1 µM,"[14]; read-out: HIV-1 entry, % of control cells",41 ± 8%
same,inhibition at 1 µM,[14]; read-out: inhibition of viral entry,60%
same,toxicity by MTT test,[15],toxic effects
"CC(C)(C)c1ccc(C(O)CCCN2CCC(C(O)(c3ccccc3)c3ccccc3)CC2)cc1 (stereo not drawn) [Terfenadine, α-[4-(1,1-dimethylethyl)phenyl]-4-(hydroxydiphenylmethyl)-1-piperidinebutanol, reference compound]",% 10^-5 remaining activity on US28 in inositol phosphate assay,[1],15%
N#CC(CCCN1CCN(c2ccc(Cl)cc2)CC1)(c1ccccc1)c1ccccc1 [VUF5658],% 10^-5 remaining activity on US28 in inositol phosphate assay,[1],88%
same,inverse agonistic effect at US28 relative to the compound of Formula X (statement in words),[1],inactive
N#CC(CCCN1CCC(O)(c2ccccc2)CC1)(c1ccccc1)c1ccccc1 [VUF5660],IC50,[1]; [16],29 µM
same,% 10^-5 remaining activity on US28 in inositol phosphate assay,[1],60%
same,loss in inverse agonistic potency,[1],five- to ten-fold
same,IC50,[2],35 µM
N#CC(CCCN1CCC(c2ccc(Cl)cc2)CC1)(c1ccccc1)c1ccccc1 [VUF5662],IC50,[1]; [16],14 µM
same,% 10^-5 remaining activity on US28 in inositol phosphate assay,[1],60%
same,loss in inverse agonistic potency,[1],five- to ten-fold
same,IC50,"[2]; [125I]-RANTES binding at US28, COS-7 cells, N.A. = non active, read-out: IC50 binding",10.5 µM
N#CC(CCCN1CC=C(c2ccc(Cl)cc2)CC1)(c1ccccc1)c1ccccc1 [VUF5664],% 10^-5 remaining activity on US28 in inositol phosphate assay,[1],83%
O=C(CCCN1CCC(O)(c2ccc(Cl)cc2)CC1)c1ccccc1 [VUF5666],% 10^-5 remaining activity on US28 in inositol phosphate assay,[1],70%
OC1(c2ccc(Cl)cc2)CCN(CCCC(c2ccccc2)c2ccccc2)CC1 [VUF5667],IC50,[1]; [16],4.2 µM
same,% 10^-5 remaining activity on US28 in inositol phosphate assay,[1],23%
same,inverse agonistic effect at US28 relative to the compound of Formula X (statement in words),[1],does not affect the activity
same,IC50,[2],5.9 µM
N#CC1(CCCN2CCC(O)(c3ccc(Cl)cc3)CC2)c2ccccc2CCc2ccccc21 [VUF5713],IC50,[1]; [16],5.3 µM
same,% 10^-5 remaining activity on US28 in inositol phosphate assay,[1],-5%
same,inverse agonistic effect at US28 relative to the compound of Formula X (statement in words),[1],comparable potencies
same,IC50,[2],9.6 µM
OC1(c2ccc(Cl)cc2)CCN(CCCOc2ccccc2)CC1 [VUF5714],% 10^-5 remaining activity on US28 in inositol phosphate assay,[1],77%
N#CC(O)(CCCN1CCC(O)(c2ccc(Cl)cc2)CC1)c1ccccc1 (stereo not shown) [VUF5715],inverse agonistic effect at US28 relative to the compound of Formula X (statement in words),[1],loss of effect
O=C(NCC(CCCN1CCC(O)(c2ccc(Cl)cc2)CC1)(c1ccccc1)c1ccccc1)NC1CCNCC1 [VUF5717],% 10^-5 remaining activity on US28 in inositol phosphate assay,[1],100%
N#CC(CCCN1CCC(C(=O)O)CC1)(c1ccccc1)c1ccccc1 [VUF5718],% 10^-5 remaining activity on US28 in inositol phosphate assay,[1],85%
N#CC(CCCN1CCC(C(N)=O)CC1)(c1ccccc1)c1ccccc1 [VUF5720],% 10^-5 remaining activity on US28 in inositol phosphate assay,[1],87%
N#CC1(CCCN2CCC(O)(c3ccc(Cl)cc3)CC2)c2ccccc2CSc2ccccc21 (stereo not shown) [VUF5727],% 10^-5 remaining activity on US28 in inositol phosphate assay,[1],14%
NCC(CCCN1CCC(O)(c2ccc(Cl)cc2)CC1)(c1ccccc1)c1ccccc1 [VUF5728],% 10^-5 remaining activity on US28 in inositol phosphate assay,[1],10%
